From US9365522B2, “Pyrazole amide derivative” (AMGEN INC., priority 2015, dated 2016)

Target: T1, ligand binding domain of human ROR gamma (Homo sapiens, UniProt P51449)
T1 construct: NM_001001523; expressed in transfected cells; host or cells: HEK293T
T1 sequence (P51449 247-497 isoform P51449-2): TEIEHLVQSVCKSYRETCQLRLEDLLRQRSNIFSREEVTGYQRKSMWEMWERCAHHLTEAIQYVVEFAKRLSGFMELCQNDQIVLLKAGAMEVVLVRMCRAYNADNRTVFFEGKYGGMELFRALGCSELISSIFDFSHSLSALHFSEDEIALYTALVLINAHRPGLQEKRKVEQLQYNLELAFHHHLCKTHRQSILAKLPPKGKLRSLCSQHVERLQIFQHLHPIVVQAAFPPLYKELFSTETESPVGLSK
Experiment: ROR gamma reporter gene assay (GAL4-RORγ LBD luciferase, Dual-Glo)
Assay type: cell-based
Conditions: HEK293T cells transfected with pM-ROR gamma, 8 concentrations 3.5 nM to 10.5 μM, 24 h incubation; read-out: result (pIC50, inhibition of RORγ transcriptional activity) (converted)
Outline: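 HEK293T cells were co-transfected with GAL4 DBD fused to human RORγ LBD (aa 247-497), a 5×UAS firefly luciferase reporter and CMV-driven renilla luciferase, in medium with 10% charcoal-stripped FBS.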

IC50 | Structure (SMILES)
29500 pM | O=C(CN(Cc1ccc(Cl)cc1)C(=O)c1cnn([C@H]2CC[C@H](C(=O)O)CC2)c1C(F)(F)F)c1c(Cl)cncc1Cl [Example 41, trans-4-(4-((4-chlorobenzyl)(2-(3,5-dichloropyridin-4-yl)-2-oxoethyl)carbamoyl)-5-(trifluoromethyl)-1H-pyrazol-1-yl)cyclohexanecarboxylic acid]
74100 pM | CC1(CN(CC(=O)c2c(Cl)cncc2Cl)C(=O)c2cnn([C@H]3CC[C@H](C(=O)O)CC3)c2C(F)(F)F)CCCCC1 [Example 102, trans-4-(4-((2-(3,5-dichloropyridin-4-yl)-2-oxoethyl)-((1-methylcyclohexyl)methyl)carbamoyl)-5-(trifluoromethyl)pyrazol-1-yl)cyclohexane-1-carboxylic acid]
117000 pM | CC1(C)CC[C@H](CN(CC(=O)c2c(Cl)cncc2Cl)C(=O)c2cnn([C@H]3CC[C@H](C(=O)O)CC3)c2C(F)(F)F)O1 [Example 16, trans-4-(4-((2-(3,5-dichloropyridin-4-yl)-2-oxoethyl)(((R)-5,5-dimethylTHF-2-yl)methyl)carbamoyl)-5-(trifluoromethyl)-1H-pyrazol-1-yl)cyclohexanecarboxylic acid]
> 1e+07 pM | O=C(CN(Cc1cc(F)cc(F)c1)C(=O)c1cnn([C@H]2CC[C@H](C(=O)O)CC2)c1C(F)(F)F)c1ccncc1 [Example 62, trans-4-(4-((3,5-difluorobenzyl)(2-oxo-2-(pyridin-4-yl)ethyl)carbamoyl)-5-(trifluoromethyl)-1H-pyrazol-1-yl)cyclohexanecarboxylic acid]
> 1e+07 pM | N#C[C@]1(C(=O)O)CC[C@@H](n2ncc(C(=O)N(CC(=O)c3c(Cl)cncc3Cl)Cc3ccc(F)cc3)c2C(F)(F)F)CC1 [Example 128, trans-4-(4-((2-(3,5-dichloropyridin-4-yl)-2-oxoethyl)-((4-fluorophenyl)methyl)carbamoyl)-5-(trifluoromethyl)pyrazol-1-yl)-1-cyanocyclohexane-1-carboxylic acid]
8.32e+06 pM | Cc1cc(Cl)c(C(=O)CN(Cc2cc(F)cc(F)c2)C(=O)c2cnn([C@H]3CC[C@H](C(=O)O)CC3)c2C(F)(F)F)c(C#N)c1 [Example 307, trans-4-(4-((2-(2-chloro-6-cyano-4-methylphenyl)-2-oxoethyl)-((3,5-difluorophenyl)methyl)carbamoyl)-5-(trifluoromethyl)pyrazol-1-yl)cyclohexane-1-carboxylic acid]
282000 pM | NC(=O)c1cc(Cl)c(C(=O)CN(Cc2cc(F)cc(F)c2)C(=O)c2cnn([C@H]3CC[C@H](C(=O)O)CC3)c2C(F)(F)F)c(Cl)c1 [Example 97, trans-4-(4-((2-(4-carbamoyl-2,6-dichlorophenyl)-2-oxoethyl)-((3,5 difluorophenyl)methyl)carbamoyl)-5-(trifluoromethyl)pyrazol-1-yl)cyclohexane-1-carboxylic acid]

Continued, compound first:

Structure (SMILES) | IC50
Cc1cc(Cl)c(C(=O)CN(CC2CC(C)(C)C2)C(=O)c2cnn(C34CCC(C(=O)O)(CC3)CC4)c2C(F)(F)F)c(Cl)c1 [Example 237, 4-(4-((2-(2,6-dichloro-4-methylphenyl)-2-oxoethyl)-((3,3-dimethylcyclobutyl)methyl)carbamoyl)-5-(trifluoromethyl)pyrazol-1-yl)bicyclo[2.2.2]octane-1-carboxylic acid] | < 3470 pM
COc1cccc(Cl)c1[C@@H](O)CN(C(=O)c1cnn([C@H]2CC[C@](C)(C(=O)O)CC2)c1C(F)(F)F)[C@H]1C[C@@H]2[C@H](C1)C2(C)C [Example 341, trans-4-(4-((2-(2-chloro-6-methoxyphenyl)-2-hydroxyethyl)((1R,3r,5S)-6,6-dimethylbicyclo[3.1.0]hexan-3-yl)carbamoyl)-5-(trifluoromethyl)-1H-pyrazol-1-yl)-1-methylcyclohexanecarboxylic acid] | 759000 pM
Cc1ncc(Cl)c(C(O)CN(C(=O)c2cnn([C@H]3CC[C@](C)(C(=O)O)CC3)c2C(F)(F)F)[C@H]2C[C@@H]3[C@H](C2)C3(C)C)n1 (stereo partly drawn) [Example 407, trans-4-(4-((2-(5-chloro-2-methylpyrimidin-4-yl)-2-hydroxyethyl)((1R,3r,5S)-6,6-dimethylbicyclo[3.1.0]hexan-3-yl)carbamoyl)-5-(trifluoromethyl)-1H-pyrazol-1-yl)-1-methylcyclohexanecarboxylic acid] | 479000 pM
Cc1cc(Cl)c(C(=O)CN(C(=O)c2cnn([C@H]3CC[C@](C)(C(=O)O)CC3)c2C(F)(F)F)C2CCC(C)(C)CC2)c(Cl)c1 [Example 227, trans-4-(4-((2-(2,6-dichloro-4-methylphenyl)-2-oxoethyl)-(4,4-dimethylcyclohexyl)carbamoyl)-5-(trifluoromethyl)pyrazol-1-yl)-1-methylcyclohexane-1-carboxylic acid] | 3980 pM
CC1(C)[C@@H]2C[C@H](N(CC(O)c3ccccn3)C(=O)c3cnn([C@H]4CC[C@](C)(C(=O)O)CC4)c3C(F)(F)F)C[C@@H]21 (some centres unmarked) [Example 401] | 2.82e+06 pM
Cc1cc(Cl)c(C(=O)CN(CC2CC(C)(C)C2)C(=O)c2cnn([C@H]3CC[C@](C)(C(=O)O)CC3)c2C(F)(F)F)c(Cl)c1 [Example 238, trans-4-(4-((2-(2,6-dichloro-4-methylphenyl)-2-oxoethyl)-((3,3-dimethylcyclobutyl)methyl)carbamoyl)-5-(trifluoromethyl)pyrazol-1-yl)-1-methylcyclohexane-1-carboxylic acid] | 4370 pM
CC(C)(C)C#CCN(CC(=O)c1c(Cl)cc(F)cc1Cl)C(=O)c1cnn([C@H]2CC[C@](C)(C(=O)O)CC2)c1C(F)(F)F [Example 218, trans-4-(4-((2-(2,6-dichloro-4-fluorophenyl)-2-oxoethyl)-(4,4-dimethylpent-2-ynyl)carbamoyl)-5-(trifluoromethyl)pyrazol-1-yl)-1-methylcyclohexane-1-carboxylic acid] | 339000 pM
CC(C)(C)CN(CC(=O)c1c(Cl)cc(F)cc1Cl)C(=O)c1cnn([C@H]2CC[C@](C)(C(=O)O)CC2)c1C(F)(F)F [Example 94, trans-4-(4-((2-(2,6-dichloro-4-fluorophenyl)-2-oxoethyl)-(2,2-dimethylpropyl)carbamoyl)-5-(trifluoromethyl)pyrazol-1-yl)-1-methylcyclohexane-1-carboxylic acid] | 8320 pM
Cc1cc(Cl)c(C(=O)CN(C(=O)c2cnn(C34CCC(C(=O)O)(CC3)CC4)c2C(F)(F)F)[C@H]2C[C@@H]3[C@H](C2)C3(C)C)c(Cl)c1 [Example 321, 4-(4-((2-(2,6-dichloro-4-methylphenyl)-2-oxoethyl)((1R,3r,5S)-6,6-dimethylbicyclo[3.1.0]hexan-3-yl)carbamoyl)-5-(trifluoromethyl)-1H-pyrazol-1-yl)bicyclo[2.2.2]octane-1-carboxylic acid] | 11700 pM
CC1(C)CCC(N(CCc2c[nH]c3cccc(Cl)c23)C(=O)c2cnn([C@H]3CC[C@](C)(C(=O)O)CC3)c2C(F)(F)F)CC1 [Example 349, trans-4-(4-(2-(4-chloro-1H-indol-3-yl)ethyl-(4,4-dimethylcyclohexyl)carbamoyl)-5-(trifluoromethyl)pyrazol-1-yl)-1-methylcyclohexane-1-carboxylic acid] | 79400 pM
